# Active and inactive are the calls of the source. The rule behind the calls is not given here.
# Columns and labels:
# [1] = Cytotoxicity against human MCF7 cells assessed as inhibition of cell survival rate at 50 uM after 48 hrs by MTT assay relative to control; type: functional; settings: MCF7, 48 h
# NCI/ADR-RES [2] = assay: Inhibition of P-gp in human MCF7/ADR cells assessed as potentiation of adriamycin-induced cytotoxic activity at 20 uM after 48 hrs by MTT assay relative to control; type: cell-based
# NCI/ADR-RES [3] = assay: Reversal index, ratio of IC50 for human MCF7/ADR cells to IC50 for human MCF7 cells; type: functional
# [4] = Cytotoxicity against human MCF7 cells assessed as inhibition of cell survival rate after 48 hrs by MTT assay; type: functional, cell-based; settings: MCF7, 48 h
# [5] = Cytotoxicity against human MCF7/ADR cells assessed as inhibition of cell survival rate after 48 hrs by MTT assay; type: functional, cell-based; settings: NCI/ADR-RES
# NCI/ADR-RES [6] = assay: Inhibition of P-gp in human MCF7/ADR cells assessed as increase in intracellular adriamycin accumulation at 20 uM after 3 hrs by flow cytometry; type: cell-based
# NCI/ADR-RES [7] = assay: Inhibition of P-gp in human MCF7/ADR cells assessed as increase in intracellular rhodamine123 accumulation at 10 to 20 uM incubated for 4 hrs in dark condition by flow cytometry; type: cell-based
# NCI/ADR-RES [8] = assay: Inhibition of P-gp in human MCF7/ADR cells assessed as increase in intracellular adriamycin accumulation at 10 uM after 3 hrs by flow cytometry relative to control; type: cell-based
# [9] = Downregulation of P-gp expression in human MCF7/ADR cells at 20 uM after 36 hrs by Western blot method relative to control; type: functional, cell-based; settings: NCI/ADR-RES
# NCI/ADR-RES [10] = assay: Inhibition of P-gp in human MCF7/ADR cells assessed as increase in intracellular adriamycin accumulation at 10 uM after 3 hrs by flow cytometry relative to verapamil; type: cell-based
# [11] = Downregulation of P-gp expression in human MCF7/ADR cells at 10 uM after 36 hrs by Western blot method relative to control; type: functional, cell-based; settings: NCI/ADR-RES
# NCI/ADR-RES [12] = assay: Inhibition of P-gp in human MCF7/ADR cells assessed as increase in intracellular adriamycin accumulation at 20 uM after 3 hrs by flow cytometry relative to verapamil; type: cell-based
# NCI/ADR-RES [13] = assay: Inhibition of P-gp in human MCF7/ADR cells assessed as potentiation of adriamycin-induced cell death by measuring dead cell levels at 10 uM after 48 hrs by 7-AAD staining-based flow cytometry; design: scale not given: the % may be the effect or the level left
# NCI/ADR-RES [14] = assay: Inhibition of P-gp in human MCF7/ADR cells assessed as increase in intracellular adriamycin accumulation at 10 to 20 uM after 4 hrs by fluorescence microscopic analysis; type: cell-based
# NCI/ADR-RES [15] = assay: Inhibition of P-gp in human MCF7/ADR cells assessed as potentiation of adriamycin-induced cell death by measuring dead cell levels at 20 uM after 48 hrs by 7-AAD staining-based flow cytometry (reference value: 8.1%); design: scale not given: the % may be the effect or the level left
Compound,inhibition at 50 µM [1],fold change (FC) (NCI/ADR-RES [2]),inhibition (NCI/ADR-RES [6]),inhibition (NCI/ADR-RES [7]),other results
CC1=CCC[C@H]2[C@@]1(C)[C@@H](OC(=O)c1cccnc1)[C@H](OC(=O)C(C)C)[C@](C)(O)[C@]2(C)/C=C/C1=CC(=O)OC1,19.1%,6.3,–,–,–
CC[C@]1(O)C[C@H]2CN(CCc3c([nH]c4ccccc34)[C@@](C(=O)OC)(c3cc4c(cc3OC)N(C=O)[C@H]3[C@@](O)(C(=O)OC)[C@H](OC(C)=O)[C@]5(CC)C=CCN6CC[C@]43[C@@H]65)C2)C1 [VINCRISTINE],–,–,–,–,Ratio IC50 (NCI/ADR-RES [3]): 48.3; IC50 [4]: 1.3 µM; IC50 [5]: 62.8 µM
CC1=CCC[C@H]2[C@@]1(C)[C@@H](OC(=O)c1cccnc1)[C@H](OC(=O)c1cccnc1)[C@](C)(O)[C@]2(C)/C=C\C1=CC(=O)OC1,18.8%,13.1,–,–,–
CC(=O)O[C@H]1[C@H](OC(C)=O)[C@]2(C)O[C@@]3(CC[C@]2(C)[C@H]2[C@H](OC(=O)c4cccnc4)CC=C(C)[C@]12C)COC(=O)C3 (relative stereo),16.6%,11.5,Active,Active,inhibition (NCI/ADR-RES [8]): Active
CC(=O)O[C@@H](CC1=C(O)C(=O)OC1)[C@]1(C)[C@H]2CCC=C(C)[C@]2(C)[C@@H](OC(=O)c2cccnc2)[C@H](O)[C@]1(C)O,18.5%,1.5,–,–,–
CC1=CC[C@@H](OC(=O)c2ccccc2)[C@H]2[C@@]1(C)[C@@H](OC(=O)c1cccnc1)[C@H](O)[C@]1(C)O[C@@]3(CC[C@]21C)COC(=O)C3,41.3%,33.4,Active,Active,inhibition (NCI/ADR-RES [8]): Active
CC(=O)O[C@@H](CC1=C(O)C(=O)OC1)[C@]1(C)[C@H]2CCC=C(C)[C@]2(C)[C@@H](OC(=O)c2cccnc2)[C@H](OC(=O)c2ccccc2)[C@]1(C)O,23.1%,2,–,–,–
CC(=O)O[C@H]1[C@H](OC(=O)c2cccnc2)[C@@]2(C)C(C)=CC[C@@H](O)[C@@H]2[C@@]2(C)[C@@H](OC(=O)c3cccnc3)C[C@@]3(COC(=O)C3)O[C@@]12C,14.3%,29.1,Active,Active,inhibition (NCI/ADR-RES [8]): Active
CC1=CC[C@@H](OC(=O)c2cccnc2)[C@H]2[C@@]1(C)[C@@H](OC(=O)c1cccnc1)[C@H](OC(=O)c1ccccc1)[C@]1(C)O[C@]3(CC[C@]21C)COC(=O)C3,13.6%,45.3,Active,Active,Activity [9]: 32%; fold change (FC) (NCI/ADR-RES [10]): 1.5; Activity [11]: 27%; fold change (FC) (NCI/ADR-RES [12]): 1.8; Activity (NCI/ADR-RES [13]): 74.7%; inhibition (NCI/ADR-RES [14]): Active; fold change (FC) (NCI/ADR-RES [8]): 2.89; Activity (NCI/ADR-RES [15]): 89.2%
CC1=CC[C@@H](O)[C@H]2[C@@]1(C)[C@@H](OC(=O)c1cccnc1)[C@H](O)[C@]1(C)O[C@]3(COC(=O)C3)C[C@H](OC(=O)c3cccnc3)[C@]21C (relative stereo),14.6%,7.5,–,–,–
CC(=O)O[C@@]12CO[C@@H]1C[C@H](O)[C@@]1(C)C(=O)[C@H](O)C3=C(C)[C@@H](OC(=O)[C@H](O)[C@@H](NC(=O)OC(C)(C)C)c4ccccc4)C[C@@](O)([C@@H](OC(=O)c4ccccc4)[C@H]21)C3(C)C [DOCETAXEL ANHYDROUS],–,–,–,–,Ratio IC50 (NCI/ADR-RES [3]): 26.5; IC50 [4]: 0.8 µM; IC50 [5]: 21.2 µM
CC1=CCC[C@H]2[C@@]1(C)[C@@H](OC(=O)c1cccnc1)[C@H](OC(=O)c1cccnc1)[C@](C)(O)[C@]2(C)/C=C/C1=CC(=O)OC1,31.4%,4.6,–,–,–
CC(=O)OC(C(=O)O[C@H]1[C@H](OC(=O)c2cccnc2)[C@@]2(C)C(C)=CCC[C@@H]2[C@@](C)(/C=C/C2=CC(=O)OC2)[C@@]1(C)O)C(C)C (some centres undefined),23.8%,11.4,–,–,–
CC(=O)OC[C@@]12[C@@H](OC(C)=O)C[C@@H](C)[C@](C)(C3O[C@@H]4OC[C@@H](OC(=O)c5cccnc5)[C@@H]4[C@@H]3O)[C@H]1CCC[C@]21CO1 (some centres undefined),25.2%,2.8,–,–,–
CC1=CC[C@@H](OC(=O)c2ccccc2)[C@H]2[C@@]1(C)[C@@H](OC(=O)c1cccnc1)[C@H](O)[C@]1(C)O[C@]3(CC[C@]21C)COC(=O)C3 (relative stereo),20.1%,17.8,Active,Active,inhibition (NCI/ADR-RES [8]): Active
